# Experimental data taken from patent publication US8680269B2, “Pesticidal compositions” (Dow AgroSciences, LLC., priority 2009, dated 2014).
# Key:
# Format in all cases: in vivo
# [1] = test system: corn earworm (CEW; Helicoverpa zea); test: Insecticidal test for corn earworm, 128-well diet tray assay; conditions: 144 h, 50 μg/cm2 on artificial diet, second instar larvae, six days at 25° C.
# Method: (§1) Bioassays on corn earworm (CEW; Helicoverpa zea: Lepidoptera) were conducted using a 128-well diet tray assay. Three to five second instar CEW larvae were placed in each well (3 mL) of the diet tray that had been previously filled with 1 mL of artificial diet to which 50 μg/cm^2 of the test compound (dissolved in 50 μL of 90:10 acetone-water mixture) had been applied (to each of eight wells) and then allowed to dry. Trays were covered with a clear self-adhesive cover, and held at 25° C., 14:10 light-dark for six days. Percent mortality was recorded for the larvae in each well; activity in the eight wells was then averaged.
# [2] = test system: beet armyworm (BAW; Spodoptera exigua); test: Insecticidal test for beet armyworm, 128-well diet tray assay; conditions: 144 h, 50 μg/cm2 on artificial diet, second instar larvae, six days at 25° C.
# Method: as §1, with “beet armyworm (BAW; Spodoptera exigua:” for “corn earworm (CEW; Helicoverpa zea:”, “BAW” for “CEW”
# [3] = test system: green peach aphid (Myzus persicae); test: Insecticidal test for green peach aphid in foliar spray assay; conditions: 72 h, 200 ppm foliar spray on cabbage seedlings, graded after three days, Abbott corrected % control, read-out: Mortality GPA 200 ppm
# Method: Cabbage seedlings grown in 3-inch pots, with 2-3 small (3-5 cm) true leaves, were used as test substrate. The seedlings were infested with 20-50 green peach aphids (wingless adult and nymph) one day prior to chemical application. Four pots with individual seedlings were used for each treatment. Compounds (2 mg) were dissolved in 2 mL of acetone/methanol (1:1) solvent, forming stock solutions of 1000 ppm. The stock solutions were diluted 5× with 0.025% Tween 20 in H2O to obtain the test solution at 200 ppm. A hand-held Devilbiss sprayer was used for spraying a solution to both sides of cabbage leaves until runoff. Reference plants (solvent check) were sprayed with the diluent only. Treated plants were held in a holding room for three days at approximately 25° C. and 40% relative humidity (RH) prior to grading. Evaluation was conducted by counting the number of live aphids per plant under a microscope. Insecticidal activity data, measured by using Abbott's correction formula, are presented in Table 2: Corrected % Control=100*(X−Y)/X • where X=No. of live aphids on solvent check plants • Y=No. of live aphids on treated plants
SMILES,mortality at 50 µg/cm2 [1],mortality at 50 µg/cm2 [2],mortality at 200 ppm [3]
CN(C)c1ccc(NC(=S)N/N=C/c2ccc(-c3ncn(-c4ccc(OC(F)(F)F)cc4)n3)cc2)cc1 [Compound 1],50 to 100%,50 to 100%,< 80%
"CN(C)c1cccc(NC(=S)N/N=C/c2ccc(-c3ncn(-c4ccc(OC(F)(F)F)cc4)n3)cc2)c1 [Compound 2, N-(3-(dimethylamino)phenyl)-2-(4-(1-(4-(trifluoromethoxy)phenyl)-1H-1,2,4-triazol-3-yl)benzylidene)hydrazinecarbothioamide]",50 to 100%,50 to 100%,< 80%
"FC(F)(F)Oc1ccc(-n2cnc(-c3ccc(/C=N/NC(=S)NCc4ccccc4)cc3)n2)cc1 [Compound 3, N-benzyl-2-(4-(1-(4-(trifluoromethoxy)phenyl)-1H-1,2,4-triazol-3-yl)benzylidene)hydrazinecarbothioamide]",< 50%,50 to 100%,< 80%
FC(F)(F)c1ccc(-n2cnc(-c3ccc(/C=N/NC(=S)NCCc4ccccn4)cc3)n2)cc1 [Compound 5],50 to 100%,50 to 100%,< 80%
FC(F)(F)Oc1ccc(-n2cnc(-c3ccc(/C=N/NC(=S)NCCc4ccccn4)cc3)n2)cc1 [Compound 6],50 to 100%,50 to 100%,< 80%
CN(C)C(=S)N/N=C/c1ccc(-c2ncn(-c3ccc(C(F)(F)F)cc3)n2)cc1 [Compound 8],50 to 100%,50 to 100%,< 80%
FC(F)(F)C(F)(F)Oc1ccc(-n2cnc(-c3ccc(/C=N/NC(=S)NCCc4ccccn4)cc3)n2)cc1 [Compound 9],50 to 100%,50 to 100%,< 80%
Fc1ccc(NC(=S)N/N=C/c2ccc(-c3ncn(-c4ccc(OC(F)(F)F)cc4)n3)cc2)cc1 [Compound 10],50 to 100%,50 to 100%,< 80%
CN(C)C(=S)N/N=C/c1ccc(-c2ncn(-c3ccc(OC(F)(F)F)cc3)n2)cc1 [Compound 11],50 to 100%,50 to 100%,< 80%
C=CCNC(=S)N/N=C/c1ccc(-c2ncn(-c3ccc(OC(F)(F)F)cc3)n2)cc1 [Compound 12],50 to 100%,50 to 100%,< 80%
CNC(=S)N/N=C/c1ccc(-c2ncn(-c3ccc(OC(F)(F)F)cc3)n2)cc1 [Compound 13],50 to 100%,50 to 100%,< 80%
FC(F)(F)Oc1ccc(-n2cnc(-c3ccc(/C=N/NC(=S)Nc4ccccc4)cc3)n2)cc1 [Compound 14],50 to 100%,50 to 100%,< 80%
CNC(=S)N/N=C/c1ccc(-c2ncn(-c3ccc(C(F)(F)F)cc3)n2)cc1 [Compound 15],50 to 100%,50 to 100%,< 80%
FC(F)(F)Oc1ccc(-n2cnc(-c3ccc(/C=N/NC(=S)NCCN4CCOCC4)cc3)n2)cc1 [Compound 16],50 to 100%,50 to 100%,< 80%
FC(F)(F)Oc1ccc(-n2cnc(-c3ccc(/C=N/NC(=S)NCCOc4ccccn4)cc3)n2)cc1 [Compound 17],50 to 100%,50 to 100%,< 80%
COCCNC(=S)N/N=C/c1ccc(-c2ncn(-c3ccc(OC(F)(F)F)cc3)n2)cc1 [Compound 18],50 to 100%,50 to 100%,< 80%
CN(C)CCCNC(=S)N/N=C/c1ccc(-c2ncn(-c3ccc(OC(F)(F)F)cc3)n2)cc1 [Compound 19],< 50%,< 50%,< 80%
FC(F)(F)Oc1ccc(-n2cnc(-c3ccc(/C=N/NC(=S)NCCC4=CCCCC4)cc3)n2)cc1 [Compound 20],50 to 100%,50 to 100%,< 80%
Fc1ccccc1CNC(=S)N/N=C/c1ccc(-c2ncn(-c3ccc(OC(F)(F)F)cc3)n2)cc1 [Compound 22],50 to 100%,50 to 100%,< 80%
FC(F)(F)Oc1ccc(-n2cnc(-c3ccc(/C=N/NC(=S)NC4CC4)cc3)n2)cc1 [Compound 23],50 to 100%,50 to 100%,< 80%
CCCCCNC(=S)N/N=C/c1ccc(-c2ncn(-c3ccc(OC(F)(F)F)cc3)n2)cc1 [Compound 24],< 50%,50 to 100%,< 80%

SMILES,mortality at 50 µg/cm2 [1],mortality at 50 µg/cm2 [2],mortality at 200 ppm [3]
FC(F)(F)Oc1ccc(-n2cnc(-c3ccc(/C=N/NC(=S)NC4CCCCC4)cc3)n2)cc1 [Compound 25],50 to 100%,50 to 100%,< 80%
Cc1cccc(C)c1NC(=S)N/N=C/c1ccc(C2=NN(c3ccc(OC(F)(F)F)cc3)CC2)cc1 [Compound 140],50 to 100%,50 to 100%,
FC(F)(F)Oc1ccc(N2CCC(c3ccc(/C=N/NC(=S)Nc4c(Cl)cccc4Cl)cc3)=N2)cc1 [Compound 141],50 to 100%,50 to 100%,
COc1ccc([C@@H](C)NC(=S)N/N=C/c2ccc(-c3ncn(-c4ccc(OC(F)(F)F)cc4)n3)cc2)cc1 [Compound 142],50 to 100%,50 to 100%,
COc1ccc(C(C)NC(=S)N/N=C/c2ccc(-c3ncn(-c4ccc(OC(F)(F)F)cc4)n3)cc2)cc1 (centres unmarked) [Compound 143],50 to 100%,50 to 100%,
Cc1ccc(C(C)NC(=S)N/N=C/c2ccc(-c3ncn(-c4ccc(OC(F)(F)F)cc4)n3)cc2)cc1 (centres unmarked) [Compound 144],50 to 100%,50 to 100%,
FC(F)(F)Oc1ccc(-n2cnc(-c3ccc(/C=N/NC(=S)NC4CCc5ccccc54)cc3)n2)cc1 (centres unmarked) [Compound 145],50 to 100%,50 to 100%,
CC(NC(=S)N/N=C/c1ccc(-c2ncn(-c3ccc(OC(F)(F)F)cc3)n2)cc1)c1ccc(Br)cc1 (centres unmarked) [Compound 146],50 to 100%,50 to 100%,
Cc1ccccc1C(C)NC(=S)N/N=C/c1ccc(-c2ncn(-c3ccc(OC(F)(F)F)cc3)n2)cc1 (centres unmarked) [Compound 147],50 to 100%,50 to 100%,
COc1ccccc1C(C)NC(=S)N/N=C/c1ccc(-c2ncn(-c3ccc(OC(F)(F)F)cc3)n2)cc1 (centres unmarked) [Compound 148],50 to 100%,50 to 100%,
COc1ccc(C(C)NC(=S)N/N=C/c2ccc(-c3ncn(-c4ccc(OC(F)(F)F)cc4)n3)cc2)cc1C (centres unmarked) [Compound 149],50 to 100%,50 to 100%,
COc1ccc(C(C)NC(=S)N/N=C/c2ccc(-c3ncn(-c4ccc(OC(F)(F)F)cc4)n3)cc2)cc1OC (centres unmarked) [Compound 151],50 to 100%,50 to 100%,
CC(NC(=S)N/N=C/c1ccc(-c2ncn(-c3ccc(OC(F)(F)F)cc3)n2)cc1)c1ccccc1 (centres unmarked) [Compound 152],50 to 100%,50 to 100%,
COc1cccc(C(C)NC(=S)N/N=C/c2ccc(-c3ncn(-c4ccc(OC(F)(F)F)cc4)n3)cc2)c1 (centres unmarked) [Compound 153],50 to 100%,50 to 100%,
FC(F)(F)Oc1ccc(-n2cnc(-c3ccc(/C=N/NC(=S)NCc4ccsc4)cc3)n2)cc1 [Compound 154],50 to 100%,50 to 100%,
CC(NC(=S)N/N=C/c1ccc(-c2ncn(-c3ccc(OC(F)(F)F)cc3)n2)cc1)c1ccsc1 (centres unmarked) [Compound 155],50 to 100%,50 to 100%,
Cc1ccsc1CNC(=S)N/N=C/c1ccc(-c2ncn(-c3ccc(OC(F)(F)F)cc3)n2)cc1 [Compound 156],50 to 100%,50 to 100%,
COCc1ccc(C(C)NC(=S)N/N=C/c2ccc(-c3ncn(-c4ccc(OC(F)(F)F)cc4)n3)cc2)cc1 (centres unmarked) [Compound 157],50 to 100%,50 to 100%,
CC(NC(=S)N/N=C/c1ccc(-c2ncn(-c3ccc(OC(F)(F)F)cc3)n2)cc1)c1cccnc1 (centres unmarked) [Compound 158],50 to 100%,50 to 100%,
CC(NC(=S)N/N=C/c1ccc(-c2ncn(-c3ccc(OC(F)(F)F)cc3)n2)cc1)c1ccc2c(c1)OCO2 (centres unmarked) [Compound 159],50 to 100%,50 to 100%,
